Data from patent US20260042754A1, “Substituted Bicyclic Heteroaryl Sulfonamide Derivatives for the Treatment of Cancer” (NODUS ONCOLOGY LIMITED, priority 2022, published 2026).

Columns and labels:
[1] = target: human PARG (PARG-NanoLuc fusion in HEK293T cells) (Homo sapiens (Human), UniProt Q86W56); assay: PARG NanoBRET-based cellular target engagement assay; type: cell-based; details: HEK293T cells transfected with PARG-NanoLuc, NanoBRET probe 0.89 μM, 2 hours; read-out: PARG TE IC50
Experimental: PARG Nano-luciferase construct: The PARG-NanoLuc® fusion vector was generated by Promega, by inserting the full length human PARG cDNA sequence encoding the 976 amino acid protein (Gene ID: 8505, UniProt: Q86W56) into the pNLF1-C [CMV/Hygro] vector (C-terminal fusions with NanoLuc® enzyme).
PARG target engagement tracer synthesis: The NanoBRET tracer for PARG was prepared following a previously reported general tracer synthesis procedure.
PARG Probe Displacement Assay Using NanoBRET: HEK293T (DSMZ #ACC 635) cells transiently transfected with the PARG-NanoLuc fusion construct were resuspended in phenol red-free OptiMEM (Gibco #11058-021) to a concentration of 2.4×10^5 cells/mL. 9 μL per well were then added to a white 384-well low volume microplate (Greiner #784080) and incubated for 24 hours under standard growth conditions.
Then compound was dispensed into each well using an Echo dispenser (BeckmanCoulter) to yield the pre-specified final concentration of the range of concentrations to be tested (typically 8-point serial concentrations ranging from either from 0.01 to 10 μM, or from 0.001 to 1 μM, or from 0.0001 to 0.1 μM), and being volume-corrected with 100% DMSO (0.5% final DMSO concentration in reaction mixtures).
After mixing and an incubation at room temperature for 15 min 1 μl of the NanoBRET probe (at 0.89 μM final concentration) was added to the microplate using a multichannel pipette. The plate was mixed and incubated in a 5% CO2 environment at 37° C. for 2 hours, and then 5 μL per well of a solution consisting of a 1:31.25 dilution of Nano-Glo substrate (Promega) and a 1:500 dilution of NanoLuc extracellular inhibitor (Promega) in phenol red-free OptiMEM was added to each well followed by another mixing step. Filtered luminescence was measured on an EnVision plate reader (PerkinElmer) equipped with a 460 nm filter (donor) and a 645 nm filter (acceptor). BRET ratios were plotted as concentration-response curves fitted to a sigmoidal 4-parameter logistic model to calculate IC50 values (Scigilian Analyze).

[2] = target: Recombinant His-tagged human PARG protein (Homo sapiens (Human), UniProt Q86W56); assay: PARG enzymatic assay (TFMU-ADPr fluorescence); type: biochemical; details: 1 nM enzyme, 200 μM TFMU-ADPr, read after 30 minutes
Experimental: Inhibition of PARG enzymatic activity by compounds was determined as follows: Recombinant His-tagged human PARG protein expressed in Sf21 insect cells (Adipogen AG, #40T-0022) was aliquoted and stored at −80° C. until use. The artificial enzyme substrate 4-(trifluoromethyl)umbelliferone (TFMU)-ADPr was prepared essentially as described (Drown B S et al, Cell Chemical Biology 2018) and stored at −20° C. as 10 mM stock solutions in DMSO (dimethyl sulfoxide) until use. For reactions, typical final concentration of the enzyme was 1 nM and of the TFMU-ADPr 200 μM. Reactions were carried out in black 384-well low volume round bottom assay plates (Corning, #4514) in a final volume of 10 μL. To this end, PARG was diluted to 1.67 nM in reaction buffer (50 mM K2HPO4, 50 mM KCl, 10 mM β-mercaptoethanol, pH 7.4) and 6 μL were dispensed per assay well using a multichannel pipette. Then compound was dispensed into each well using an Echo dispenser (BeckmanCoulter) to yield the pre-specified final concentration of the range of concentrations to be tested (typically 8-point serial concentrations ranging from either from 0.01 to 10 μM, or from 0.001 to 1 μM, or from 0.0001 to 0.1 μM), and being volume-corrected with 100% DMSO (0.5% final DMSO concentration in reaction mixtures). Plates were mixed, and after 15 minutes 4 μL TFMU-ADPr was added into each well using a multichannel pipette followed by brief mixing. Fluorescence intensity signals were then measured after 30 minutes on an EnVision microplate reader (PerkinElmer) using 380/10 nm and 535/25 nm filters for the excitation and emission, respectively (gain: 150). The assay window was set using DMSO control (top) and a control containing no PARG enzyme (bottom). Delta values were plotted as concentration-response curves fitted to a sigmoidal 4-parameter logistic model to calculate IC50 values (Scigilian Analyze).

NCI-H1650 = assay: Modified cell proliferation assay (CellTiter-Glo), NCI-H1650; type: cell-based; details: Homo sapiens, NCI-H1650; modified protocol, 384-well, 300 cells per well, 120 h; highest concentration tested 30000 nM; read-out: NCI-H1650 GI50 (high PARG dependency)
Experimental: The cell proliferation assay protocol was modified and used for RMUG-S for Examples 12-44, and subsequently used to test Examples 1-44 in the NCI-H1650 cell line.
NCI-H1650 (ATCC, #CRL-5883) or RMUG-S were seeded on day 1 at 300 cells per well in a 384-well plate (Greiner, #781080) that assure assay linearity and optimal signal intensity in 25 μL of RPMI1640 media (Pan Biotech, #P04-22100) containing 10% FCS (Capricorn, #FBS-11A; Lot. CP22-5141) and 1% Glutamine (Pan Biotech, #P04-80100). After incubation for 24 h in humidified chambers at 37° C./5% CO2, compounds/DMSO were dispensed at different concentrations using an Echo 520 (Beckman Coulter). Cells were further incubated for 120 h at 37° C. and 5% CO2. Cells treated with the compound vehicle DMSO were used as negative controls and cells treated with 10 μM Staurosporine (LC Laboratories, #S-9300) served as positive controls.
At day 6 the CellTiter Glo Reagent was prepared according to the instructions of the kit (Promega Inc.): Reagent was mixed 1:1 with cell culture medium. Thereon, mixture and assay plates were equilibrated at room temperature for 20 min. Equal volumes of the reagent-medium-mixture were added to the volume of culture medium present in each well. The plates were mixed at […] for 2 minutes on an orbital shaker (Timix5, Edmund Buehler GmbH). The microplates were then incubated at room temperature for 10 minutes for stabilization of the luminescent signal. Following incubation, the luminescence was recorded on a Victor X5 microplate reader (Perkin Elmer) using a 200 ms integration time. The data was then analyzed with Excel using the XLFIT Plugin (dose response Fit 205) for determination of the concentration necessary for half-maximal inhibition (i.e. the inflection point of the fitted curve).
As quality control the Z′-factor was calculated from 16 positive and negative control values. Only assay results showing a Z′-factor≥0.5 were used for further analysis.

Chain of Recombinant His-tagged human PARG protein (Q86W56 whole entry): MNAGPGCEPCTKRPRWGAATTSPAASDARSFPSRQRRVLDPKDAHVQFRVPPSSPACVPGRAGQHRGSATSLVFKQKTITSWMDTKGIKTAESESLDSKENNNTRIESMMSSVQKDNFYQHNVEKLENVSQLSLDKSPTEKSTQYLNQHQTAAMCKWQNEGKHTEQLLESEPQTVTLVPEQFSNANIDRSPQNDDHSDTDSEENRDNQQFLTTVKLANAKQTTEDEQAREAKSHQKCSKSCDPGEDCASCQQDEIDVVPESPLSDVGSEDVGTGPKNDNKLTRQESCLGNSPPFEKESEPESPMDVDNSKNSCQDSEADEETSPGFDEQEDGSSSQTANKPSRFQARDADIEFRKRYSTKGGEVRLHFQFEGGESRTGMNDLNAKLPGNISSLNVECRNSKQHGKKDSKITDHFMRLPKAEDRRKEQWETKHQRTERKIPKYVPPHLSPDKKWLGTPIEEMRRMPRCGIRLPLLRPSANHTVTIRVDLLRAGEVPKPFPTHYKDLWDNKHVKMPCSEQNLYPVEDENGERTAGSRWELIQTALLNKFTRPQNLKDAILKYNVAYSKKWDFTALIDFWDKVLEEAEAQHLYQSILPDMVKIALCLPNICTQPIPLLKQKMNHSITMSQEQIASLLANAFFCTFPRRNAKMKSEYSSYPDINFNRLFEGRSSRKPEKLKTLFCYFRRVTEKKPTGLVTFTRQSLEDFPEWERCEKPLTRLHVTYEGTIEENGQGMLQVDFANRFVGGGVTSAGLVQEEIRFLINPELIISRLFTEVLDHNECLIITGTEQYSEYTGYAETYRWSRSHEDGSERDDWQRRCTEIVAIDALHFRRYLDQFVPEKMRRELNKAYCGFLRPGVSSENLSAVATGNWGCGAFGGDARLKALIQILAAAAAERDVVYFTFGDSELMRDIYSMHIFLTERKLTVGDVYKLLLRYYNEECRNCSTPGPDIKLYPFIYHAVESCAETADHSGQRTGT
Chain of human PARG (PARG-NanoLuc fusion in HEK293T cells) (Q86W56 whole entry, the tested form may be a part): as the sequence (Q86W56 whole entry) above

Compound | IC50 [1] [nM] | IC50 [2] [nM] | GI50 (NCI-H1650) [nM]
CO/N=c1\[nH]c2c(-c3ccc(C(N)=O)cc3)cc(S(=O)(=O)NC3(C)CC3)cc2c(=O)n1Cc1cnn(C)c1 [Example 15, (E)-4-(2-(methoxyimino)-3-((1-methyl-1H-pyrazol-4-yl)methyl)-6-(N-(1-methylcyclopropyl)sulfamoyl)-4-oxo-1,2,3,4-tetrahydroquinazolin-8-yl)benzamide] | 30 to 99 | < 30 | > 2000
CO/N=c1\[nH]c2c(-c3ccc(CN)cc3)cc(S(=O)(=O)NC3(C)CC3)cc2c(=O)n1Cc1cnn(C)c1 [Example 17, (E)-8-(4-(aminomethyl)phenyl)-2-(methoxyimino)-3-((1-methyl-1H-pyrazol-4-yl)methyl)-N-(1-methylcyclopropyl)-4-oxo-1,2,3,4-tetrahydroquinazoline-6-sulfonamide] | 100 to 1000 | 30 to 99 | > 2000
CO/N=c1\[nH]c2c(N3CCN(C(=O)CC(F)(F)F)[C@H](C)C3)cc(S(=O)(=O)NC3(C)CC3)cc2c(=O)n1Cc1cnn(C)c1 [Example 31, (R,E)-2-(methoxyimino)-3-((1-methyl-1H-pyrazol-4-yl)methyl)-8-(3-methyl-4-(3,3,3-trifluoropropanoyl)piperazin-1-yl)-N-(1-methylcyclopropyl)-4-oxo-1,2,3,4-tetrahydroquinazoline-6-sulfonamide] | < 30 | < 30 | < 500
CO/N=c1\[nH]c2c(N3CCN(C(=O)C4(C#N)CC4)[C@H](C)C3)cc(S(=O)(=O)NC3(C)CC3)cc2c(=O)n1Cc1cnn(C)c1 [Example 33, (R,E)-8-(4-(1-cyanocyclopropane-1-carbonyl)-3-methylpiperazin-1-yl)-2-(methoxyimino)-3-((1-methyl-1H-pyrazol-4-yl)methyl)-N-(1-methylcyclopropyl)-4-oxo-1,2,3,4-tetrahydroquinazoline-6-sulfonamide] | < 30 | < 30 | < 500
CO/N=c1\[nH]c2c(N3CCN(C(=O)C4(N(C)C)CC4)[C@H](C)C3)cc(S(=O)(=O)NC3(C)CC3)cc2c(=O)n1Cc1cnn(C)c1 [Example 34, (R,E)-8-(4-(1-(dimethylamino)cyclopropane-1-carbonyl)-3-methylpiperazin-1-yl)-2-(methoxyimino)-3-((1-methyl-1H-pyrazol-4-yl)methyl)-N-(1-methylcyclopropyl)-4-oxo-1,2,3,4-tetrahydroquinazoline-6-sulfonamide] | < 30 | < 30 | < 500
CO/N=c1\[nH]c2c(N3CCN(C(=O)C(C)C)[C@H](C)C3)cc(S(=O)(=O)NC3(C)CC3)cc2c(=O)n1Cc1cnn(C)c1 [Example 35, (R,E)-8-(4-isobutyryl-3-methylpiperazin-1-yl)-2-(methoxyimino)-3-((1-methyl-1H-pyrazol-4-yl)methyl)-N-(1-methylcyclopropyl)-4-oxo-1,2,3,4-tetrahydroquinazoline-6-sulfonamide] | < 30 | < 30 | < 500

Continued, values first:

IC50 [1] [nM] | IC50 [2] [nM] | GI50 (NCI-H1650) [nM] | Compound
< 30 | < 30 | > 2000 | CO/N=c1\[nH]c2c(-c3ccc(C(C)=O)cc3)cc(S(=O)(=O)NC3(C)CC3)cc2c(=O)n1Cc1cnn(C)c1 [Example 16, (E)-8-(4-acetylphenyl)-2-(methoxyimino)-3-((1-methyl-1H-pyrazol-4-yl)methyl)-N-(1-methylcyclopropyl)-4-oxo-1,2,3,4-tetrahydroquinazoline-6-sulfonamide]
< 30 | < 30 | 500 to 2000 | CO/N=c1\[nH]c2c(-c3ccc(C(=O)C4(C)CC4)cc3)cc(S(=O)(=O)NC3(C)CC3)cc2c(=O)n1Cc1cnn(C)c1 [Example 18, (E)-2-(methoxyimino)-3-((1-methyl-1H-pyrazol-4-yl)methyl)-8-(4-(1-methylcyclopropane-1-carbonyl)phenyl)-N-(1-methylcyclopropyl)-4-oxo-1,2,3,4-tetrahydroquinazoline-6-sulfonamide]
< 30 | < 30 | 500 to 2000 | CO/N=c1\[nH]c2c(-c3ccc(C(=O)N(C)C)nc3)cc(S(=O)(=O)NC3(C)CC3)cc2c(=O)n1Cc1cnn(C)c1 [Example 19, (E)-5-(2-(methoxyimino)-3-((1-methyl-1H-pyrazol-4-yl)methyl)-6-(N-(1-methylcyclopropyl)sulfamoyl)-4-oxo-1,2,3,4-tetrahydroquinazolin-8-yl)-N,N-dimethylpicolinamide]
< 30 | < 30 | 500 to 2000 | CO/N=c1\[nH]c2c(-c3ccc(C(=O)N(C)C)cn3)cc(S(=O)(=O)NC3(C)CC3)cc2c(=O)n1Cc1cnn(C)c1 [Example 20, (E)-6-(2-(methoxyimino)-3-((1-methyl-1H-pyrazol-4-yl)methyl)-6-(N-(1-methylcyclopropyl)sulfamoyl)-4-oxo-1,2,3,4-tetrahydroquinazolin-8-yl)-N,N-dimethylnicotinamide]
< 30 | < 30 | 500 to 2000 | CO/N=c1\[nH]c2c(-c3cnc(C(=O)N(C)C)[nH]3)cc(S(=O)(=O)NC3(C)CC3)cc2c(=O)n1Cc1cnn(C)c1 [Example 23, (E)-5-(2-(methoxyimino)-3-((1-methyl-1H-pyrazol-4-yl)methyl)-6-(N-(1-methylcyclopropyl)sulfamoyl)-4-oxo-1,2,3,4-tetrahydroquinazolin-8-yl)-N,N-dimethyl-1H-imidazole-2-carboxamide]
